Results reported in article PMC6934184, “Selective DNA-PKcs inhibition extends the therapeutic index of localized radiotherapy and chemotherapy” (The Journal of Clinical Investigation, 2019).

Target: T1, TLK1 (Homo sapiens, UniProt Q9UKI8)
T1 construct: purchased Thermo Fisher Scientific (Life Technologies) SelectScreen
Assay: SelectScreen LanthaScreen
Assay type: binding
Details: read-out: % displacement
How it was run: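 NU5455 was profiled across the SelectScreen Broad panel of kinase activity and binding assays. Z'LYTE reactions such as CSF1R ran at apparent Km ATP, while the Adapta CAMK1 assay used ATP listed as 10. Values are given as percent.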

T1 sequence (Q9UKI8 whole entry): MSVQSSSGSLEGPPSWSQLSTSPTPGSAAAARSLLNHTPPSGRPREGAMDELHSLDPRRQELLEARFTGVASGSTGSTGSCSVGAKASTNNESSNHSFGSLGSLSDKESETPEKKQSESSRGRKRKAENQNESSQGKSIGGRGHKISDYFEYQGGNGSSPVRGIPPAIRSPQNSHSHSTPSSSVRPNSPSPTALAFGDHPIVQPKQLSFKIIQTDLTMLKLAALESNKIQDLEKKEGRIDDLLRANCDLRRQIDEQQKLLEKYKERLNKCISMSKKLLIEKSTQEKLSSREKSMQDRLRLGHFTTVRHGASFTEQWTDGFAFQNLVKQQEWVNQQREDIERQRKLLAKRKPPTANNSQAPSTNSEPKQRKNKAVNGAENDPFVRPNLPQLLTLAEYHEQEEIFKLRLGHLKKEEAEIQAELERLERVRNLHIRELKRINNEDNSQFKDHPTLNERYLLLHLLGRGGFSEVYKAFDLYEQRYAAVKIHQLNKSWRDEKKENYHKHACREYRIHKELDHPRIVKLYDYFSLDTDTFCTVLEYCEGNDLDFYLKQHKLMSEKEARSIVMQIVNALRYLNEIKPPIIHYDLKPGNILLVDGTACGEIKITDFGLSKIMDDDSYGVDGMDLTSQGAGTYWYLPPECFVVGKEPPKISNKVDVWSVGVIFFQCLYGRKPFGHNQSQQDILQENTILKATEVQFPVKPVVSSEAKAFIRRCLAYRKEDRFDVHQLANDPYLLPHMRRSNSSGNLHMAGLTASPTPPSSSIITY

## CN(C(=O)CN1CCOCC1)c1ccc2sc3c(-c4cccc5c(=O)cc(N6CC7CCC(C6)O7)oc45)cccc3c2c1 [NU5455]
  inhibition at 1 µM: -0.8%
